# Patent publication US20150051231A1, “SYNERGISTIC COMBINATIONS OF TRIAZOLES, STROBILURINS AND BENZIMIDAZOLES, USES, FORMULATIONS, PRODUCTION PROCESSES AND APPLICATIONS USING THE SAME” (FMC Quimica do Brasil Ltda., priority 2010, published 2015)
# Read-outs that look alike come from different tables or passages of the source.
# How the values were obtained:
# Assay type in all cases: in vivo
# Corynespora cassiicola = experiment: Target spot severity in soybean 14 days after the third application (Table 5), Rondonópolis-MT; conditions: for Severity (%) C. cassiicola: 14 days after the third application; for control of target spot (C. cassiicola) in soybean crops, in words: isolated use, PrioriXtra under conditions of high disease severity
# Description: (§1) In addition to these benefits, the association of the three fungicides—tebuconazole, carbendazim and azoxystrobin or tebuconazole, carbendazim and kresoxim-methyl provides greater safety regarding protection against the emergence of fungi resistant to fungicides and improved control spectrum.
# Colletotrichum truncatum = experiment: Anthracnose severity in soybean 14 days after the third application (Table 5), Rondonópolis-MT; conditions: for Severity (%) C. truncatum: 14 days after the third application; for control of anthracnose (C. truncatum) in soybean crops, in words: isolated use, PrioriXtra under conditions of high disease severity
# Description: as §1
# [1] = system: Phakopsora pachyrhizi Sydow; experiment: Field trial, interactions of fungicides for control of Asian soybean rust, flutriafol series (Tables 2 and 4), Rondonópolis-MT; conditions: for Control (%) Lower canopy, obtained by AUDPC / Control (%) Upper canopy, obtained by AUDPC: rates g/há ai: Kresoxim-methyl 125, Azoxystrobin 30, Flutriafol 62.5, Flut+Carb+Kresoxim 62.5 + 200 + 125, Flut+Carb+Azoxystrobin 62.5 + 200 + 30, Flut+Carb 62.5 + 200
# Experimental: (§2) A study was prepared to analyze the interaction effect using the multiplicative model of distribution proposed by Colby (1967), using Equation 1 below to calculate the expected response: […]
# (§3) wherein E is the expected reduction in disease development (such as the reduction in the percentage of expected control or the reduction in the area under the disease-progress curve), and x and y represent the reduction in disease development achieved by treatment with fungicide x and y, respectively.
# Regarding the study of the interaction effect for the association of flutriafol+carbendazim+azoxystrobin and flutriafol+carbendazim+kresoxim-methyl, the model proposed by Colby was used.
# [2] = system: Phakopsora pachyrhizi Sydow; conditions: three preventive applications from R1
# Experimental: This study was conducted to evaluate the efficacy of the products in the control of Asian soybean rust (Favorita). Preventive applications started in R1, the second application was made 19 days after the first (in R4) and the third application was made 15 days after the second (in R5.3). Emulsifiable mineral oil Assist was added at the dose of 0.5% v/v in all treatments, except for the PrioriXtra treatments, in which 0.5% v/v Nimbus was added. […] The efficacy of BF 452 and BF 465 is consistent, reducing the disease throughout the soybean plant canopy.
# [3] = system: Phakopsora pachyrhizi Sydow; conditions: three preventive applications from V9
# Experimental: This study was conducted to evaluate the efficacy of the products in the control of Asian rust. The start of preventive applications in V9, the second application was made 20 days after the first (in R4) and the third application was made 15 days after the second. Emulsifiable mineral oil Assist was added, at the dose of 0.5% v/v in all treatments, except for the PrioriXtra treatments, in which 0.5% v/v Nimbus was added, and Fox, in which Aureo was added at the dose of 0.4 L/ha.
# [4] = system: Phakopsora pachyrhizi Sydow; conditions: three preventive applications from R1; remark: listed apart in the source
# Experimental: This study was conducted to evaluate the efficacy of the products in the control of Asian soybean rust. Preventive applications started in R1, with the second application occurring 20 days after the first application and the third application 15 days after the second. Emulsifiable mineral oil Assist was added, at the dose of 0.5% v/v in all treatments, except for the PrioriXtra treatments, in which 0.5% v/v Nimbus was added, and Fox, in which Aureo was added at the dose of 0.4 L/ha.
# [5] = system: Phakopsora pachyrhizi Sydow; experiment: Field trial, soybean rust AUDPC and yield (Table 6), Rondonópolis-MT
# Description: (§4) The association of azoxystrobin with the tebuconazole+carbendazim mixture provided high control efficacy of rust (see Table 6 below). […] The association of the three fungicides tebuconazole, carbendazim and azoxystrobin provides effective control of target spot (Corynespora cassiicola) and anthracnose (Colletotrichum truncatum) (see Table 5 above), and contains fungicides with three modes of action—carbendazim (benzimidazole)—acting on the integrity of tubulin; tebuconazole (triazole)—sterol synthesis inhibitors; azoxystrobin (strobilurin)—inhibits mitochondrial respiration.
# as §4, with “of kresoxim-methyl” for “of azoxystrobin”, “6 above).” for “6 below).”, “and kresoxim-methyl” for “and azoxystrobin”, “[…] (strobilurin)-inhibits” for “azoxystrobin (strobilurin)—inhibits”
# [6] = system: Phakopsora pachyrhizi Sydow; conditions: three preventive applications from R1; remark: listed apart in the source
# Experimental: This study was conducted to evaluate the efficacy of the products in the control of Asian soybean rust (Valiosa). Preventive applications started in R1, the second application was made 19 days after the first (in R5.1) and the third application was made 15 days after the second (in R5.5). Emulsifiable mineral oil Assist was added at the dose of 0.5% v/v in all treatments, except for the PrioriXtra treatments, in which 0.5% v/v Nimbus was added.
# [7] = system: Phakopsora pachyrhizi Sydow; experiment: Field trial, interactions of fungicides for control of Asian soybean rust, tebuconazole series (Tables 1 and 3), Rondonópolis-MT; conditions: for control of rust (Phakopsora pachyrhizi Sydow) in soybean crops, in words: isolated use; for Control (%) Lower canopy, obtained by AUDPC / Control (%) Upper canopy, obtained by AUDPC: rates g/ha ai: Kresoxim-methyl 125, Azoxystrobin 30, Tebuconazole 100, Teb+Carb+Kresoxim 100 + 200 + 125, Teb+Carb+Azoxystrobin 100 + 200 + 30, Teb+Carb 100 + 200
# Description: (See Table 1 below), carbendazim even at a dose of 250 g/ha ai, and tebuconazole at the dose of 100 g/ha ai.
# The association of azoxystrobin with the tebuconazole+carbendazim mixture (BF 488) provided a control efficacy gain and a residual control effect even under high pressure of Asian rust. […] The addition of azoxystrobin from 6 g/ha ai in the mixture of tebuconazole+carbendazim (100+200 g/ha ai, respectively) has already reflected in rust efficacy gain, providing control similar to the efficacy standard of azoxystrobin+cyproconazole (60+24 g/ha ai, respectively), and this product is marketed by Syngenta as PrioriXtra®. The addition of azoxystrobin in doses of 18, 24 and 30 g/ha ai together with tebuconazole+carbendazim was effective for obtaining yields higher than the market standard containing 60 g/ha of azoxystrobin.
# The association of kresoxim-methyl with the tebuconazole+carbendazim mixture (BF 452) provided a control efficacy gain and a residual control effect even under high pressure of Asian rust. […] The addition of kresoxim-methyl from 75 g/ha ai in the mixture of tebuconazole+carbendazim (100+200 g/ha ai, respectively) has already reflected in rust efficacy gain, providing control similar to the efficacy standard of azoxystrobin+cyproconazole (60+24 g/ha ai, respectively), and this product is marketed by Syngenta as PrioriXtra®.
# as §2, §3
# The possible interaction responses are: • a) antagonism, which is characterized by joint action of two fungicides showing the response of a test organism in their combination that is lower than the expected response, obtained by appropriate reference models, as proposed by Colby (1967); • b) synergism, which is the cooperative action of two fungicides showing a response in the test organism on the joint application that is higher than the expected response obtained by appropriate reference models, and • c) additive, which occurs when two fungicides react by presenting a response in the test organism on the joint application that is equal to the expected response obtained by appropriate reference models.
# To use the model proposed by Colby, the association tebuconazole+carbendazim (100+200, respectively) was established for a comparative test with azoxystrobin or kresoxim-methyl and a response of the type of interaction (see Table 3 below).
compound,measurement,setting,value
"OC(Cn1cncn1)(c1ccc(F)cc1)c1ccccc1F (racemic) [flutriafol, (RS)-2,4′-difluoro-α-(1H-1,2,4-triazol-1-ylmethyl)benzhydryl alcohol]",Severity (%) C. cassiicola,Corynespora cassiicola; rate 62.5 g/ha a.i.,22.5%
same,"control of target spot (C. cassiicola) in soybean crops, in words",Corynespora cassiicola,not effective
same,Severity (%) C. truncatum,Colletotrichum truncatum; rate 62.5 g/ha a.i.,31.3%
same,"control of anthracnose (C. truncatum) in soybean crops, in words",Colletotrichum truncatum,not effective
same,"control of rust (Phakopsora pachyrhizi Sydow) in soybean crops, in words",[1]; isolated use,not effective in controlling rust
same,AUPDC* Lower Canopy,[1]; rate 62.5 g/ha a.i.,1312.6
same,AUPDC* Upper Canopy,[1]; rate 62.5 g/ha a.i.,1097.2
same,Productivity,[1]; rate 62.5 g/ha a.i.,1578.2 kg/ha
same,"Control (%) Lower canopy, obtained by AUDPC",[1],24.0%
same,"Control (%) Upper canopy, obtained by AUDPC",[1],26.5%
"CC(C)(C)C(O)(CCc1ccc(Cl)cc1)Cn1cncn1 (racemic) [tebuconazole, (RS)-1-p-chlorophenyl-4,4-dimethyl-3-(1H-1,2,4-triazol-1-ylmethyl)pentan-3-ol]","efficacy in controlling soybean rust, in words",[2],not effective in controlling soybean rust
same,Severity (%) C. cassiicola,Corynespora cassiicola; rate 100 g/ha a.i.,23.5%
same,"control of target spot (C. cassiicola) in soybean crops, in words",Corynespora cassiicola,not effective
same,"efficacy in controlling soybean rust, in words",[3],not effective in controlling soybean rust
same,Severity (%) C. truncatum,Colletotrichum truncatum; rate 100 g/ha a.i.,30.0%
same,"control of anthracnose (C. truncatum) in soybean crops, in words",Colletotrichum truncatum,not effective
same,"efficacy in controlling soybean rust, in words",[4],not effective in controlling soybean rust
same,AUPDC* Lower Canopy,[5]; rate 100 g/ha a.i.,747.4
same,AUPDC* Upper Canopy,[5]; rate 100 g/ha a.i.,227.5
same,Productivity,[5]; rate 100 g/ha a.i.,2570.8 kg/ha
same,"efficacy in controlling soybean rust, in words",[6],not effective in controlling soybean rust
same,"control of rust (Phakopsora pachyrhizi Sydow) in soybean crops, in words",[7],not effective in controlling rust
same,AUPDC* Lower Canopy,[7]; rate 100 g/ha a.i.,896.0
same,AUPDC* Upper Canopy,[7]; rate 100 g/ha a.i.,427.0
same,Productivity,[7]; rate 100 g/ha a.i.,2152.0 kg/ha
same,"Control (%) Lower canopy, obtained by AUDPC",[7],32%
same,"Control (%) Upper canopy, obtained by AUDPC",[7],71%
COC(=O)Nc1nc2ccccc2[nH]1 [carbendazim],AUPDC* Lower Canopy,[5]; rate 250 g/ha a.i.,361.8
same,AUPDC* Upper Canopy,[5]; rate 250 g/ha a.i.,247.5
same,Productivity,[5]; rate 250 g/ha a.i.,1323.7 kg/ha
same,"control of rust (Phakopsora pachyrhizi Sydow) in soybean crops, in words",[7],not effective in controlling rust
same,AUPDC* Lower Canopy,[7]; rate 250 g/ha a.i.,261.0
same,AUPDC* Upper Canopy,[7]; rate 250 g/ha a.i.,1148.0
same,Productivity,[7]; rate 250 g/ha a.i.,1324.0 kg/ha
same,AUPDC* Lower Canopy,[1]; rate 250 g/ha a.i.,1576.3
same,AUPDC* Upper Canopy,[1]; rate 250 g/ha a.i.,1317.0
same,Productivity,[1]; rate 250 g/ha a.i.,1293.0 kg/ha
"CO/N=C(/C(=O)OC)c1ccccc1COc1ccccc1C [kresoxim-methyl, methyl(E)-methoxyimino[α-(o-tolyloxy)-o-tolyl]acetate]",Severity (%) C. cassiicola,Corynespora cassiicola; rate 125 g/ha a.i.,22.3%
same,"control of target spot (C. cassiicola) in soybean crops, in words",Corynespora cassiicola,not effective
same,Severity (%) C. truncatum,Colletotrichum truncatum; rate 125 g/ha a.i.,19.5%
same,"control of anthracnose (C. truncatum) in soybean crops, in words",Colletotrichum truncatum,not effective
same,AUPDC* Lower Canopy,[5]; rate 125 g/ha a.i.,1245.9
same,AUPDC* Upper Canopy,[5]; rate 125 g/ha a.i.,1074.1
same,Productivity,[5]; rate 125 g/ha a.i.,1848.5 kg/ha
same,"control of rust (Phakopsora pachyrhizi Sydow) in soybean crops, in words",[7],not effective in controlling rust
same,AUPDC* Lower Canopy,[7]; rate 125 g/ha a.i.,1146.0
same,AUPDC* Upper Canopy,[7]; rate 125 g/ha a.i.,978.0
same,Productivity,[7]; rate 125 g/ha a.i.,1349.0 kg/ha
same,"Control (%) Lower canopy, obtained by AUDPC",[7],13%
same,"Control (%) Upper canopy, obtained by AUDPC",[7],34%
same,AUPDC* Lower Canopy,[1]; rate 125 g/ha a.i.,1415.8
same,AUPDC* Upper Canopy,[1]; rate 125 g/ha a.i.,1261.3
same,Productivity,[1]; rate 125 g/ha a.i.,1479.5 kg/ha
same,"Control (%) Lower canopy, obtained by AUDPC",[1],18.0%
same,"Control (%) Upper canopy, obtained by AUDPC",[1],15.5%
